Key:
Assay type in all cases: cell-based
Borrelia burgdorferi [1] = test: Effect of DTT concentration on spirochete growth in BSK-H medium, dark-field microscopy
Procedure: (§1) The cells were cultured for 6 days with different concentration of rabbit serum, DTT and antibiotics, as depicted, and cellular growth was evaluated by direct cell counting of motile spirochetes using dark field microscopy. Each set of data represents three independent experiments (mean±SD). Statistical significance was determined using two-sample paired t-test. The data *p-values<0.05 indicates statistical significance as related to control.
The effect of the addition of a reducing agent, such as DTT, to the culture media was also evaluated. To determine the effect of DTT concentration on spirochete growth, Borrelia burgdorferi were cultured in BSK-H medium with 6%, 12%, and 20% rabbit serum and either 0.145 μg/ml DTT or 100 μg/ml DTT. The spirochetes were incubated in a CO2 incubator at 34° C. with 5% CO2 and 100% humidity for 6 days, at which time spirochete growth was evaluated by dark-field microscopy. […] See, FIG. 2B. […] See, FIG. 2B, p=0.0002.

Borrelia burgdorferi [2] = test: Effect of magnesium concentration on spirochete growth in BSK-H medium; details: 7.5×10^−2 M vs 7.5×10^−3 M MgCl2, 6% rabbit serum, 6 days, data not shown
Procedure: To determine the effect of magnesium concentration on spirochete growth, Borrelia burgdorferi were cultured in BSK-H medium with 6% rabbit serum and either 7.5×10^−2 M MgCl2, or 7.5×10^−3 M MgCl2. The spirochetes were incubated in a CO2 incubator at 32° C. with 5% CO2 and 100% humidity for 6 days, at which time spirochete growth was evaluated by dark-field microscopy.

Borrelia burgdorferi [3] = test: Effect of antibiotic concentration on spirochete growth in BSK-H medium, dark-field microscopy
Procedure: as §1
To determine the effect of antibiotic concentration on spirochete growth, Borrelia burgdorferi were cultured in BSK-H medium containing 12% rabbit serum, 100 μg/ml DTT and one of the following antibiotics: 0.5 μg/ml rifampicin, 50 μg/ml rifampicin, a 5 μg/ml rifampicin disc (resulting in final concentration of 0.4 μg/ml), 50 μg/ml phosphomycin, 100 μg/ml phosphomycin, or the combination of 50 μg/ml rifampicin and 50 μg/ml phosphomycin. The spirochetes were incubated in a CO2 incubator at 34° C. with 5% CO2 and 100% humidity for 6 days, at which time spirochete growth was evaluated by dark-field microscopy. […] See, FIG. 2C.

With O[C@H](CS)[C@H](O)CS (racemic) [DTT, dithiothreitol] the “spirochete yield, 100 μg/ml DTT relative to 0.145 μg/ml DTT” value (Borrelia burgdorferi [1]; BSK-H with 12% rabbit serum, p=0.0002) was “twice as many spirochetes” and the spirochete yields (Borrelia burgdorferi [1]; DTT (0.145 or 100 μg/ml) included in BSK-H culture medium, 6 days) was “increased spirochete yields”.

For [Cl-].[Cl-].[Mg+2] [MgCl2], the spirochete growth (Borrelia burgdorferi [2]) was “No significant differences in spirochete growth”.

C[C@@H]1O[C@@H]1P(=O)(O)O [phosphomycin] was tested, and the spirochete yield (Borrelia burgdorferi [3]; 50 or 100 μg/ml phosphomycin, BSK-H, 12% rabbit serum, 100 μg/ml DTT, 6 days, 34° C.) was “significantly decreased spirochete yield” and the spirochete yields (Borrelia burgdorferi [3]; lower concentrations of phosphomycin (e.g., 10 and 50 μg/ml), data not shown) was “significantly decreased spirochete yields”.

From patent US8697419B2, “Compositions and methods for culturing spirochetes” (Advanced Laboratory Services, Inc., priority 2011, dated 2014)
